According to patent publication US10137171B2, “Methods of treatment using a pentapeptide derived from the C-Terminus of Glucagon-Like Peptide 1 (GLP-1)” (The General Hospital Corporation, priority 2011, dated 2018):
Entries after “also recorded” stand apart in the source; their conditions may differ. Where no end group is shown, it is not given here.

Tests used:
[1] = test system: insulin-resistant isolated mouse hepatocytes; experiment: ROS formation assay (isolated primary hepatocytes); type: cell-based; conditions: 30 mM glucose 24 h; peptide 10 pM, 100 pM and 100 nM (FIG. 9A)
Procedure: FIG. 9A is a bar graph showing suppression of the production of reactive oxygen species (ROS) by the pentapeptide GLP-1(32-36)amide in insulin-resistant isolated mouse hepatocytes. Hepatocytes were rendered insulin-resistant by their pre-incubation in 30 mM glucose. Primary hepatocytes from C57BL/6J mice were seeded at 2×10^5 cell per well in twelve-well plates and treated for 24 h with 30 mM glucose in the absence of presence of GLP-1(32-36)amide (10 pM, 100 pM and 100 nM). To measure ROS levels cells were washed twice in HBSS (Hanks' Balance Salt Solution) and incubated with 10 uM 5-(and 6)-carboxy-2′,7′-dichlorohydro-fluorescein diacetate (CM-H2DCFDA) (Molecular Probes) for 45 minutes. The media were removed and cells were lysed. ROS was measured in the cell lysates using a spectrofluorometer (485 nm/535 nm). Data were normalized to values obtained from untreated controls. The data shown are the means of two independent hepatocyte isolations+/−SEMs.
Primary hepatocytes from diet-induced obese (DIO) and C57BL/6J mice were seeded in 12-well plates at a density of 2×10^5/well for 24 h. C57BL/6J hepatocytes were treated with 30 mM glucose in the absence or presence of GLP-1(32-36)amide for 20 to 24 h and compared to DIO hepatocytes treated with GLP-1(32-36)amide. […] ROS was measured in the cell lysates using a spectrofluorometer (485 nm/535 nm). […]

diet-induced obese mice [2] = experiment: Metabolic parameters in closed metabolic chambers (TSE PhenoMaster/LabMaster); type: in vivo, mouse
From the text: FIGS. 4A-C show the results of metabolic measurements of body weights, energy expenditure (VO2), and physical activities of mice during three days of monitoring in TSE-Systems metabolic cages. Mice were 37 weeks old and fed the very high fat diet for 31 weeks at the time of the study. 4A. Line graph showing body weights during three-day monitoring. Vehicle N=2; GLP-1s N=3. # p<0.01; ## p<0.006; ## p<0.008; ## p<0.007. 4B. Bar graph and line graph showing total body oxygen consumption (VO2) measured during both light and dark cycles for the three days of monitoring. Upper panel; Total VO2. Lower panel: Daily time-course of VO2 during light and dark cycles averaged over the three days. Vehicle N=2; GLP-1s N=3. 4C. Bar graph and line graph showing physical activity of the mice during the three days of the metabolic studies. Upper panel: Total activities averaged for light and dark cycles. Lower panel: Time-dependent measurements of activities. Activities were measured for hourly intervals during the light cycle of six hours (13:00 to 18:00) and for two hour intervals during the dark cycle of 12 hours (18:00 to 6:00). […] Vehicle N=2; GLP-1s N=3. The findings support a model of increased basal energy expenditure in mice infused with GLP-1(32-36)amide versus mice infused with control vehicle, independent of endogenous energy expenditure due to physical activity. N=3 mice for pentapeptide infusion and N=2 mice for control vehicle infusion.
FIGS. 4D-G show the results of metabolic measurements of energy expenditure (VO2) of monitoring in TSE-Systems metabolic cages. Mice were 33-34 weeks old and fed the very high fat diet for […] at the time of the study. 4D and 4E. Line graph and bar graph showing total body oxygen consumption (VO2) measured during the light phase during two days. 4F and 4G. Line graph and bar graph showing lean body oxygen consumption (VO2) measured during the light phase during two days.
Mice were single-caged for three days acclimatization and then transferred to single-cage metabolic chambers in a PhenoMaster/LabMaster system (TSE-Systems, Inc., Chesterfield, Mo.) for measurements of oxygen consumption, CO2, physical activity, and food intake during light and dark cycles for a period of 72 hrs.

diet-induced obese mice [3] = experiment: Plasma circulating glycerol and triglyceride (FIG. 6C); type: in vivo, mouse; conditions: 16 weeks continuous infusion, 60% fat diet 24 weeks (FIG. 6C)
From the text: FIG. 6C is a table showing continuous infusion of GLP-1(32-36)amide for 16-weeks improves plasma circulating levels of glycerol and triglyceride in mice fed on a 60% fat diet (VHFD) for 24-weeks. *p<0.02, peptide vs. vehicle; **p<0.008 peptide vs. vehicle.

diet-induced obese mice [4] = experiment: Intraperitoneal glucose tolerance test (ipGTT); type: in vivo, mouse; conditions: glucose 2 g/kg BW ip, overnight fasted, VHFD 24 weeks, 16 weeks infusion (FIG. 5C)
Procedure: FIGS. 5C-D are a pair of line graphs Plasma glucose levels (FIG. 5C) and (FIG. 5D) Plasma insulin levels after an intraperitoneal glucose administration ([…] BW ip) in overnight fasted mice fed in VHFD for 24-weeks and 16-weeks of continuous infusions of vehicle or GLP-1(32-36)amide. ***p<4E-03 vehicle vs. GLP-1(32-36)amide, *p<0.01 vehicle vs. GLP-1(32-36)amide, **p<0.004 vehicle vs. GLP-1(32-36)amide, *****p<1.7E-05 vehicle vs. GLP-1(32-36)amide, ****p<6.7 E-04 vehicle vs. GLP-1(32-36)amide.
Mice were maintained in a normal light/dark cycle according to the standard protocols of the MGH Animal Care and Use Committee. Mice were tested with age matched or litter mate controls and 6 mice per group are required. […] The following morning the mice were prepared for the glucose tolerance test: animals were weighed, the tail was nicked with a fresh razor blade by a horizontal cut of the very end, ˜35 to 50 microliters of blood is massaged from the tail to an eppendorf tube which is immediately placed on ice, baseline blood glucose is measured by the glucose oxidase method using a Glucometer Elite glucometer, and 2 grams/kg body weight of 20% D-glucose is drawn up in a Beckton Dickenson D 29 gage ½″ insulin syringe (one unit of D-glucose for every gram of body weight). Animals were then transferred to individually labeled 1000 cc cardboard soup cups with the lid liners removed.
Following animal preparation, glucose was injected into the intraperitoneal cavity. At 10, 20, 30, 60, 120, and 140 minutes blood glucose is sampled from the tail of each mouse by gently massaging a small drop of blood onto the glucometer strip. Glucose injections and blood glucose sampling is timed to take approximately the same amount of time per animal (i.e. 25 animals are injected in 12 minutes and blood glucose sampling of those same 25 animals should also take about 12 minutes) so that the sample times are accurate for each animal.

LVKGRamide (LVKGR-NH2) [GLP-1(32-36)amide, pentapeptide derived from the C-terminus of the glucoincretin hormone GLP-1]
ROS levels [1]: prevented the rise in ROS levels; also recorded: suppression
body weight during three-day metabolic chamber monitoring (diet-induced obese mice [2]; VHFD 31 weeks, infusion twelve weeks, vehicle 52 (FIG. 4A)): 38 grams
cumulative food consumption vs vehicle (diet-induced obese mice [2]; indirect calorimetric studies): lower
physical activity vs vehicle (diet-induced obese mice [2]; light and dark cycles (FIG. 4C)): not significantly different; also recorded: not associated with changes; also recorded: no significant differences
whole body oxygen consumption (Total VO2) vs vehicle (diet-induced obese mice [2]; light cycle and dark cycle (FIG. 4B)): significantly higher
resting oxygen consumption vs vehicle (diet-induced obese mice [2]; light cycle and dark cycle (FIG. 4D, 4E)): increase
plasma circulating levels of glycerol and triglyceride (diet-induced obese mice [3]): improves; also recorded: lowered
glycemic response in ipGTT (diet-induced obese mice [4]): normal
